According to patent publication US20150209379A1, “TREATMENT OF PROSTATE CANCER AND HEMATOLOGIC NEOPLASMS” (THOMAS JEFFERSON UNIVERSITY, priority 2012, published 2015):

Target: T1, Stat5a (Homo sapiens, UniProt P42229)
T1 sequence (P42229 1-794): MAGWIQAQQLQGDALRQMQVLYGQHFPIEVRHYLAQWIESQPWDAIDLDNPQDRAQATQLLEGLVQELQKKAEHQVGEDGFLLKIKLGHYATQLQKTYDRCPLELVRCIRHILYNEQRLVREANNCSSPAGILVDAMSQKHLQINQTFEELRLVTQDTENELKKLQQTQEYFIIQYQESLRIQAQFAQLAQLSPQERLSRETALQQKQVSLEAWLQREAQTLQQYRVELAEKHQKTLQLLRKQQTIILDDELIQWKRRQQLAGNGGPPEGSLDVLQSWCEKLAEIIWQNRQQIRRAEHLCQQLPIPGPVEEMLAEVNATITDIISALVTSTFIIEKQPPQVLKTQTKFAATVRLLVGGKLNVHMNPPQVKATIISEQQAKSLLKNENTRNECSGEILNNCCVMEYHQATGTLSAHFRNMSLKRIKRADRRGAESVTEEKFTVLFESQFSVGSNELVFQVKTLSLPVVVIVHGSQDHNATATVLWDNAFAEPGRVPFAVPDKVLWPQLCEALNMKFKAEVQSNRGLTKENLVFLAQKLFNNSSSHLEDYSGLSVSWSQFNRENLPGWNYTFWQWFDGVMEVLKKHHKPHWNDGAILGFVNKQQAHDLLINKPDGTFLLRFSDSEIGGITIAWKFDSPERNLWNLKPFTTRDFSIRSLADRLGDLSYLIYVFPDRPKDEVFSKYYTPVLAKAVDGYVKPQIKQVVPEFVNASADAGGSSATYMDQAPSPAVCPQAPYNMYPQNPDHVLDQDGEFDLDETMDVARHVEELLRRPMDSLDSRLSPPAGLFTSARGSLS
Assay: Prolactin-induced Stat5a phosphorylation in CWR22Rv1 prostate cells (immunoprecipitation/Western blot)
Format: cell-based
Details: CWR22Rv1, 12, 25, 50 and 100 μM for 2 h, then 10 nM Prl 30 minutes
Method: CWR22Rv1 cells were starved for 24 h in serum-free medium, treated with Compound 2 at 12, 25, 50 and 100 μM concentrations for 2 h, followed by stimulation with 10 nM Prl for 30 minutes. Stat5a was immunoprecipitated with anti-Stat5a pAb (4 gg/ml, Millipore, Billerica, Mass.). Immunoprecipitates of CWR22Rv1 cells were blotted with anti-phospho-Stat5ab mAb (1 μg/ml, Advantex BioReagents, Conroe, Tex.) or anti-Stat5a/b mAb (BD Biosciences, San Jose, Calif.). Whole cell lysates were immunoblotted with anti-actin pAb for loading control.
The protocol in more detail comprised the following. Cell pellets were solubilized in lysis buffer [10 mM Tris-HCl (pH 7.6), 5 mM EDTA, 50 mM sodium chloride, 30 mM sodium pyrophosphate, 50 mM sodium fluoride, 1 mM sodium orthovanadate, 1% Triton X-100, 1 mM phenylmethylsulfonyl fluoride, 5 μg/ml aprotinin, 1 μg/ml pepstatin A, and 2 μg/ml leupeptin], rotated end-over-end at 4° C. for 60 min, and insoluble material was pelleted at 12,000×g for 30 min at 4° C. The protein concentrations of clarified cell lysates were determined by simplified Bradford method (Bio-Rad Laboratories, Hercules, Calif.). Stat5a was immunoprecipitated from whole cell lysates with anti-Stat5a (4 μl/ml; Millipore, Billerica, Mass.) pAb. Antibody was captured by incubation for 60 min with protein A-Sepharose beads (Amersham Pharmacia Biotech, Piscataway, N.J.). […]

## OC[C@H]1O[C@@H](n2cnc3c(NNc4ccccc4)ncnc32)[C@H](O)[C@@H]1O [Compound 2, (2R,3S,4R,5R)-2-(hydroxymethyl)-5-(6-(2-phenylhydrazinyl)-9H-purin-9-yl)tetrahydrofuran-3,4-diol]
  effect on Stat5a phosphorylation: inhibits Stat5a phosphorylation
